In PubChem BioAssay (NCI) one finds GI50 and TGI data, which are given here for eight compounds.

Test in all cases: DTP human tumour cell line panel, 48 h
Test [1] relates to HS 578T breast.
Test [2] relates to RPMI-8226 leukemia.
The subject of test [3] is HL-60(TB) leukemia.
In test [4] the test system is MDA-MB-435.
Test [5] concerns CAKI-1 renal.
The test system of test [6] is NCI-H460 lung.
Test [7] has as its system MOLT-4 leukemia.
The test system of test [8] is HT29 colon.
Test [9] has as its system 786-0 renal.
Test [10] relates to HCC-2998 colon.

By GI50 is commonly meant the concentration that inhibits growth by half. For orientation: TGI means the concentration at which net growth stops.

The structures appear in SMILES notation.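 Interpolation was linear, between the two tested concentrations surrounding the appropriate level; five concentrations were tested over 48 hours in 96-well plates. The concentration for 50% growth inhibition is given as GI50. At the TGI there is no net growth.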

Take `Nc1n[nH]c2ccc([C@@H]3Nc4ccc5[nH]ncc5c4[C@H]4C5C=CC(C5)[C@@H]34)cc12` (stereo partly specified): the 50% growth inhibitory concentration (GI50) is 0.27 µM in [1]; 0.355 µM in test [2]; 0.321 µM in test [3]; 0.0794 µM in [4]; 0.23 µM in [5]; 0.365 µM in [6]. Also, the GI50 in test [7] is 0.433 µM; in test [8], 0.357 µM; in [9], 0.6 µM; in test [10], 0.378 µM. The TGI in test [1] came to 21.2 µM; in test [2], 11.5 µM; in [3], 4.39 µM; in test [4], 0.444 µM; in test [5], 21.6 µM; in test [6], 11.4 µM. Besides, the TGI in test [7] was 40.7 µM; in test [8], 28.7 µM; in test [9] it was 16.8 µM; in [10] it was 12.1 µM.
In the case of `O=C(N/N=C/c1cc([N+](=O)[O-])ccc1O)c1cccc2ccccc12`, the GI50 in test [1] is 12.8 µM; in test [2], 3.35 µM; in test [3], 2.27 µM; in test [4], 7.18 µM; in [5] it was 1.31 µM; in test [6], 2.75 µM. For the same compound, the GI50 was 2.41 µM in test [7], 5.74 µM in test [8], 3.29 µM in [9] and 5.3 µM in test [10]. Also, the TGI in test [1] was above 100 µM; in test [2], 62.2 µM; in [3], 6.02 µM; in [4], above 100 µM; in test [5], 4.67 µM; in test [6], above 100 µM. Further, the total growth inhibition concentration (TGI) is 21.7 µM in [7], above 100 µM in test [8], 27.7 µM in test [9] and above 100 µM in test [10].
In the case of `CCC(/C=C/c1ccccc1)=N\Nc1ccc(Cl)c(Cl)c1`, the TGI was above 100 µM in test [1]; 50.1 µM in test [2]; 72.5 µM in [3]; above 100 µM in [4]; above 100 µM in test [5]; above 100 µM in test [6]. Besides, the TGI in [7] is above 100 µM; in test [8], above 100 µM; in test [9], above 100 µM; in test [10], 65 µM.
On to `CC(C)(C#N)c1cc(C(=O)Nc2cc(Nc3ncccc3-c3ncnc4nc[nH]c34)ccc2F)cc(C(F)(F)F)c1`, for which the GI50 in test [1] is 0.919 µM; in [2], 4.84 µM; in [3] it was 0.526 µM; in test [4], 0.217 µM; in test [5], 1.14 µM; in [6], 1.18 µM. The 50% growth inhibitory concentration (GI50) in test [8] was 0.132 µM; in test [10] it was 0.372 µM. Further, the TGI in test [1] is above 2.33 µM; in test [2] it was above 10 µM; in [3], above 10 µM; in test [4] it was above 3.22 µM; in test [5], above 3.55 µM; in test [6] it was above 3.27 µM. For the same compound, the total growth inhibition concentration (TGI) is above 6.2 µM in [7] and above 6.73 µM in test [9].
In the case of `CS(=O)(=O)Nc1ccc(N=Cc2c(O)[nH]c3ccccc23)cc1`, the GI50 in test [1] is above 25 µM; in test [2] it was above 25 µM; in [3], above 25 µM; in test [4], above 25 µM; in [5], above 13.9 µM; in test [6] it was above 25 µM. The GI50 in test [7], in [8], in [9] and in test [10] was above 25 µM throughout. Moreover, the total growth inhibition concentration (TGI) in test [1], in [2], in [3], in test [4], in [5] and in test [6] was above 25 µM in each case. Moreover, the TGI in [7], in [8], in test [9] and in test [10] was above 25 µM in each case.
In the case of `COc1ccc(/C=C2\CCC(CN(C)C)C2=O)cc1OC` (stereo unspecified), the total growth inhibition concentration (TGI) in [1] is above 100 µM; in test [2], 5.95 µM; in test [3], 8.62 µM; in test [4], 16.1 µM; in test [5], 10 µM; in [6], 26.6 µM. Also, the TGI in [7] stood at 7.35 µM; in test [8], 23.5 µM; in test [9] it was 6.42 µM; in test [10] it was 14.5 µM.
Consider `CCCCCCCOc1c(OC)cc(C2CC(=O)Nc3c2c(C)nn3-c2nc3ccccc3[nH]2)cc1OC` (stereo unspecified), for which the GI50 is 1.35 µM in test [1]; 3.71 µM in [2]; 2.88 µM in [3]; 2.42 µM in [4]; 1.92 µM in [5]; 1.87 µM in test [6]. Moreover, the GI50 in test [7] was 2.8 µM; in test [8] it was 4.06 µM; in test [9], 3.61 µM; in test [10] it was 74.1 µM. In addition, the TGI in test [1] is 4.43 µM; in test [2] it was above 100 µM; in [3] it was 9.03 µM; in test [4], 6.08 µM; in test [5], 4.25 µM; in test [6], 3.82 µM. Besides, the concentration for total growth inhibition (TGI) is 7.72 µM in test [7], above 100 µM in [8], 21.8 µM in [9] and above 100 µM in test [10].
Regarding `COCCNc1cc(NC(=O)N2CCCc3cc(CN4CCN(C)CC4=O)c(C=O)nc32)ncc1C#N`, the GI50 in test [1] is 23.7 µM; in [2], 42.4 µM; in [3], above 50 µM; in test [4] it was above 50 µM; in test [5], above 50 µM; in test [6] it was above 50 µM. Also, the GI50 in test [7] was above 50 µM; in test [8], above 50 µM; in test [9] it was 29.5 µM; in test [10], above 50 µM. Moreover, the TGI in test [1], in test [2], in test [3], in test [4], in test [5] and in test [6] was above 50 µM in each case. Also, the TGI in [7], in [8], in [9] and in [10] was above 50 µM throughout.
